Values joined by “and” are separate entries in the source; they are usually repeats but may differ in a detail not shown here. Equal values may be shown once.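 All cell lines were grown in 96-well plates and treated with compound for 48 hours. Here, GI50 denotes the concentration required for 50% inhibition of growth. At the TGI there is no net growth.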
Assays:
Assay in all cases: NCI tumour cell line growth inhibition, 48 h
786-0 renal = system: 786-0 renal
DMS 114 small cell lung = system: DMS 114 small cell lung
HOP-18 NSCLC = system: HOP-18 NSCLC
HT29 colon = system: HT29 colon
M19-MEL melanoma = system: M19-MEL melanoma
NCI-H522 lung = system: NCI-H522 lung
SNB-75 CNS = system: SNB-75 CNS
SNB-78 CNS = system: SNB-78 CNS
UACC-62 melanoma = system: UACC-62 melanoma
MDA-MB-435 = system: MDA-MB-435
PC-3 prostate = system: PC-3 prostate
T-47D breast = system: T-47D breast

Structure (SMILES) | TGI (786-0 renal) | TGI (DMS 114 small cell lung) | TGI (HOP-18 NSCLC) | TGI (HT29 colon) | TGI (M19-MEL melanoma) | TGI (NCI-H522 lung) | TGI (SNB-75 CNS) | TGI (SNB-78 CNS) | TGI (UACC-62 melanoma) | TGI (MDA-MB-435) | TGI (PC-3 prostate) | TGI (T-47D breast) | GI50 (786-0 renal) | GI50 (HT29 colon) | GI50 (MDA-MB-435) | GI50 (NCI-H522 lung) | GI50 (PC-3 prostate) | GI50 (SNB-75 CNS) | GI50 (T-47D breast) | GI50 (UACC-62 melanoma)
COC(=O)C1C=CCC2CCCCC21N1CCCC1 (centres undefined) | > 100 µM | > 100 µM | > 100 µM | > 100 µM | > 100 µM | > 100 µM | > 100 µM | > 100 µM | > 100 µM |  |  |  |  |  |  |  |  |  |  | 
N/N=C(/Cc1ccccc1)NNO | > 100 µM | > 100 µM | > 100 µM | > 100 µM | > 100 µM |  | > 100 µM |  | > 100 µM |  |  |  |  |  |  |  |  |  |  | 
Cc1ccc(C2=CC(=O)c3ccccc3C2=O)n1-c1ccccc1 | > 100 µM | 55.2 µM | > 100 µM | > 100 µM | > 100 µM | > 100 µM | > 100 µM | > 100 µM | > 100 µM |  |  |  |  |  |  |  |  |  |  | 
CN(C)C(=S)/N=c1\ss/c(=N\C(=S)N(C)C)n1-c1cccc(Cl)c1 | > 100 µM | > 100 µM |  | > 100 µM |  | > 100 µM | > 100 µM | > 100 µM | > 100 µM |  |  |  |  |  |  |  |  |  |  | 
N#C/C(=C\c1ccc2[nH]ccc2c1)C(=O)NCCCCNC(=O)/C(C#N)=C/c1ccc2[nH]ccc2c1 | > 31.6 µM | > 100 µM |  | > 31.6 µM | > 100 µM | > 31.6 µM | > 31.6 µM | > 100 µM | > 31.6 µM | > 10 µM | > 10 µM | > 10 µM |  |  |  |  |  |  |  | 
C1=CC(=P(c2ccccc2)(c2ccccc2)c2ccccc2)C=C1 | 28.8 µM | 15.9 µM |  | 23.7 µM | 14.2 µM | 10.1 µM | 20.8 µM | 26.7 µM | 20 µM |  |  |  |  |  |  |  |  |  |  | 
C[C@@H]1C[C@@H]([C@H](O)CC2CC(=O)NC(=O)C2)C(=O)[C@@H](C)C1 | 3.31 µM and 3.56 µM | 1.79 µM |  | 1.97 µM and 2.4 µM | 3.48 µM | 0.643 µM and 0.549 µM | 4.93 µM and 1.43 µM | 11.1 µM | 8.14 µM and 10.5 µM | 4.09 µM | 4.51 µM | 5.07 µM | 0.186 µM | 0.272 µM | 0.233 µM | 0.126 µM | 0.243 µM | 0.333 µM | 0.231 µM | 0.321 µM
COc1cc(C2CC(c3ccc(Nc4nc(NCCO)nc(NCCO)n4)cc3)=NN2c2cc(Cl)cc(Cl)c2)cc(OC)c1OC (centres undefined) | 2.59 µM |  |  | 3.25 µM |  | 9.21 µM | 3.05 µM |  | 3.04 µM | 3.24 µM | 3.61 µM | 12.1 µM | 1.29 µM | 1.52 µM | 1.55 µM | 2.25 µM | 1.04 µM | 1.05 µM | 1.18 µM | 1.58 µM
C[C@@]1(F)[C@H](O)[C@@H](CO)O[C@H]1n1ccc(=O)[nH]c1=O | > 100 µM |  |  | > 100 µM |  | > 100 µM | > 100 µM |  | > 100 µM | > 100 µM | > 100 µM | > 100 µM | > 100 µM | > 100 µM | > 100 µM | > 100 µM | > 100 µM | > 100 µM | > 100 µM | > 100 µM
COc1ccc(-c2ccc(OC)c(OC)c2OC)cc1 | 82.2 µM |  |  | > 100 µM |  | > 27.9 µM | > 100 µM |  | > 100 µM | 0.833 µM | > 100 µM | > 100 µM | 8.23 µM | 0.529 µM | 0.239 µM | 1.56 µM | 3.62 µM | 3.34 µM | 5.87 µM | 3.29 µM
COc1ccc(-n2c(=S)sc3c(Cl)nc(C)nc32)c(OC)c1 | 20.4 µM |  |  | 6.28 µM |  | 3.89 µM | 4.26 µM |  | 4.69 µM | 3.93 µM | 5.91 µM | 21.6 µM | 4.42 µM | 2.41 µM | 2.14 µM | 1.84 µM | 2.37 µM | 1.97 µM | 6.42 µM | 2.06 µM
O=C1CC23CCCCCCCCCCC2(C1)CC(=O)C3 (centres undefined) | > 100 µM | 77.6 µM | 92.7 µM | 37.2 µM | 48.4 µM | 45 µM |  |  |  |  |  |  |  |  |  |  |  |  |  | 
O=S(=O)(NC1=NCCN1C(=S)SN1CCn2c1nsc2=S)c1ccc(Cl)cc1 | 32.4 µM |  |  | > 100 µM |  | 18.4 µM | 35.6 µM |  | 13.6 µM | 10.5 µM | 22.1 µM | 23.3 µM | 16.6 µM | 7.34 µM | 3.02 µM | 4.74 µM | 7.54 µM | 12.3 µM | 5.38 µM | 3.68 µM
CC(C)(C)C#COC(=O)c1ccccc1 | > 100 µM | > 100 µM |  | > 100 µM | > 100 µM | > 100 µM |  | > 100 µM | > 100 µM |  |  |  |  |  |  |  |  |  |  | 
COc1c2ccoc2nc2c(OC)c(OCC(O)C(C)(C)O)ccc12 (centres undefined) | > 100 µM |  |  | > 100 µM |  | > 100 µM | > 100 µM |  | > 100 µM | > 100 µM | > 100 µM | > 100 µM |  |  |  |  |  |  |  | 
O=C(c1ccccc1)C1N=NN(Cc2ccccc2[N+](=O)[O-])C1C(=O)c1ccccc1 (centres undefined) | > 100 µM | > 100 µM | > 100 µM | > 100 µM | > 100 µM | > 100 µM | > 100 µM | > 100 µM | > 100 µM |  |  |  |  |  |  |  |  |  |  | 
CC(C)C[C@@H](N)[C@@H](O)C(=O)N[C@H](C(=O)N[C@H](C(=O)N[C@@H](CC(=O)O)C(=O)O)C(C)C)C(C)C | > 20 µM |  |  | > 20 µM |  | > 20 µM | > 20 µM |  | > 20 µM | > 20 µM | > 20 µM | > 20 µM | > 20 µM | > 20 µM | > 20 µM | > 20 µM | > 20 µM | > 20 µM | > 20 µM | > 20 µM
O=c1c(Cc2ccccc2)c(O)cc2n1CCC2 | > 100 µM | > 100 µM | > 100 µM | > 100 µM | > 100 µM | > 100 µM | > 100 µM | > 100 µM | > 100 µM |  |  |  |  |  |  |  |  |  |  | 
Cc1cccc(C)c1NC(=O)C(=O)Cc1nc2ccccc2s1 | > 100 µM | > 100 µM |  | > 100 µM | > 100 µM | > 100 µM | > 100 µM | > 100 µM | > 100 µM |  |  |  |  |  |  |  |  |  |  | 
COc1ccc2c(c1)C(=O)c1c-2c(OCCCN(C)C)nc2cc(Br)ccc12 | 2.99 µM |  |  | 26.8 µM |  | 21.9 µM | 4.44 µM |  | 26.4 µM | 18.1 µM | 7.78 µM | 32.2 µM | 1.59 µM | 10.5 µM | 5.45 µM | 7.05 µM | 3.04 µM | 1.57 µM | 10.8 µM | 12.5 µM

— PubChem BioAssay (NCI)
